Experimental data taken from the NIST ThermoML archive (doi:10.1021/je034062r).

How the values were obtained:
[1] = 101.3 kPa, Liquid mixture 1
[2] = xn = mol fraction of the nth substance listed; settings: for surface tension liquid-gas: Pendant drop shape; for mass density: Liquid

CN1CCCC1=O [N-methylpyrrolidone] + CCCCCCC
[1]
Settings	interfacial tension [mN/m]
297.76 K	1.202
302.78 K	0.93
307.81 K	0.68
312.84 K	0.45
317.79 K	0.24
320.65 K	0.137
322.8 K	0.079
323.75 K	0.055
324.8 K	0.033
325.43 K	0.019
325.81 K	0.012
326.1 K	0.009

CC(C)=O [acetone] + C1CCCCC1
[2]
Settings	mass density, 288.15 K [kg/m3]	mass density, 298.15 K [kg/m3]	mass density, 308.15 K [kg/m3]	mass density, 318.15 K [kg/m3]	surface tension liquid-gas, 287.81 K [mN/m]	surface tension liquid-gas, 297.82 K [mN/m]	surface tension liquid-gas, 307.86 K [mN/m]	surface tension liquid-gas, 317.86 K [mN/m]
x2 = 0	798.2	787	775.4	762.5	23.94	22.78	21.59	20.33
x2 = 0.1002	790	779.7	768.4	756.9	23.54	22.25	21.03	19.91
x2 = 0.2001	786.6	775.3	764.2	753	23.19	22.02	20.78	19.63
x2 = 0.2993	783.2	772.3	761.4	750.2	23.23	22.02	20.82	19.63
x2 = 0.3979	781.1	769.7	759.6	748.6	23.33	22.08	20.89	19.7
x2 = 0.4964	779.7	769.2	758.6	747.8	23.58	22.22	21.14	20
x2 = 0.6	778.9	768.6	758.2	747.6	23.91	22.53	21.35	20.3
x2 = 0.6975	778.9	768.7	759.9	748.3	24.31	22.84	21.6	20.56
x2 = 0.7993	779.4	769.5	759.6	749.6	24.69	23.24	22.08	21.04
x2 = 0.8994	780.7	771.1	761.4	751.6	25.12	23.82	22.58	21.46

C1CCCCC1 [cyclohexane] + CC(C)=O
[2], x1 = 1
Settings	mass density [kg/m3]	surface tension liquid-gas [mN/m]
287.81 K	–	25.34
288.15 K	783.2	–
297.82 K	–	24.2
298.15 K	773.9	–
307.86 K	–	23.02
308.15 K	764.4	–
317.86 K	–	21.84
318.15 K	754.8	–

CCCCCCCCCC [decane] + CN(C)C=O
[1]
Settings	interfacial tension [mN/m]
292.78 K	3.78
297.77 K	3.41
302.79 K	3.1
307.81 K	2.72
312.79 K	2.4
317.8 K	2.09
322.78 K	1.82
327.81 K	1.53
332.81 K	1.24
337.76 K	0.95
342.78 K	0.69
346.8 K	0.48
348.32 K	0.37
350.11 K	0.32
352.77 K	0.19
353.65 K	0.15
354.76 K	0.105
355.31 K	0.083
355.62 K	0.07
356.15 K	0.056
356.72 K	0.035
357.15 K	0.019
357.45 K	0.012

CN(C)C=O [dimethylformamide] + CCCCCCC
[1]
Settings	interfacial tension [mN/m]
297.83 K	2.49
302.83 K	2.19
307.85 K	1.87
312.85 K	1.59
317.86 K	1.26
322.86 K	0.93
327.88 K	0.66
332.88 K	0.42
334.87 K	0.302
336.86 K	0.213
337.88 K	0.169
338.88 K	0.122
339.87 K	0.086
340.87 K	0.042
341.25 K	0.032
341.88 K	0.02
342.18 K	0.011

CCCCCCC [heptane] + C1CCCCC1
[2], x2 = 0
Settings	mass density [kg/m3]	surface tension liquid-gas [mN/m]
283.15 K	692.2	–
287.81 K	–	20.7
288.15 K	688	–
293.15 K	683.8	–
297.82 K	–	19.63
298.15 K	679.5	–
303.15 K	675.2	–
307.86 K	–	18.68
308.15 K	670.9	–
313.15 K	666.5	–
317.86 K	–	17.76
318.15 K	662.1	–
323.15 K	657.7	–
327.88 K	–	16.68
328.15 K	653.2	–
333.15 K	648.7	–

Cc1ccccc1 [toluene] + CC(C)=O
[2], x1 = 1
Settings	mass density [kg/m3]	surface tension liquid-gas [mN/m]
283.15 K	875.9	–
287.81 K	–	28.93
288.15 K	871.4	–
293.15 K	866.9	–
297.82 K	–	27.76
298.15 K	862.4	–
303.15 K	857.8	–
307.86 K	–	26.6
308.15 K	853.2	–
313.15 K	848.6	–
317.86 K	–	25.46
318.15 K	843.9	–
323.15 K	839.2	–
327.88 K	–	24.29
328.15 K	834.5	–
333.15 K	829.8	–
